PMC12040169 (PLOS Biology, 2025)

Assay: in vitro
Details: human, hela cells, % viability

SMILES	viability at 28.5 h, 10 µM [%]	viability at 28.5 h, 10 µM (bulk resorufin, single well) [%]
COc1ccnc2c1c(=O)n(Cc1ccc(Cl)cc1)c(=O)n2C [CBK287645]	66.9	
Cc1ccc(S(N)(=O)=O)cc1N [CBK024851]	109	
CCOC(=O)CNC(=O)N1CCCC1c1nc(-c2ccccc2)c2ccccn12 (centres unmarked) [CBK046502]	103	
CC(C)n1c(=O)n(C(=O)c2ccco2)c2cccnc21 [CBK283856]	102	
O=C1CCN(Cc2nc(-c3cccc(C(F)(F)F)c3)no2)CCN1 [CBK306368]	109	
CNC(=O)NC(=O)C1CCN(CCc2ccccc2)CC1 [CBK034956]	106	
CC(=O)Nc1ccccc1NC(=O)C(C)Oc1ccc(Cl)cc1Cl (centres unmarked) [CBK263954]	96.8	
CC(=O)NC1CCN(CC2(c3ccc(F)cc3)CCCC2)CC1 [CBK283327]	89	
Cn1c(=O)n(C)c2cc(NC(=O)CSc3nc(Nc4ccccc4)nc(N4CCOCC4)n3)ccc21 [CBK269041]	111	
CCCc1cc(C2CCCCCN2C(=O)c2c(C)noc2C)no1 (centres unmarked) [CBK284919]	87.7	
Cc1cccc(Cn2nc(C)c(NC(=O)COc3ccccc3)c2C)c1 [CBK270007]	93.5	
O=c1c(N2CCCNCC2)nccn1CCOc1ccc(Br)cc1 [CBK028613T]	95	
C=CCOc1c(Br)cc(CNc2ccc(C(=O)O)cc2)cc1OC [CBK267202]	111	
CCC1=C(C)C(=O)N(C(=O)NCCc2ccc(S(=O)(=O)NC(=O)NC3CCC(C)CC3)cc2)C1 (centres unmarked) [CBK011561]	93.2	
O=C(c1ccccc1F)N1CCC(c2cc3ncccc3[nH]2)CC1 [CBK283391]	86.5	
O=C(CC(CN1CCN(c2ccccn2)CC1)C(=O)O)NC1CCCCC1 (centres unmarked) [CBK286812]	87.7	
CCOC(=O)c1[nH]c(=O)[nH]c1CSc1nc(C)cc(C)n1 [CBK019514]	109	
CCOc1ccc2nc(SCCN3CCOCC3)sc2c1 [CBK005888]	89.6	
COc1ccccc1NC(=O)NC(=O)C1CCN(C(C)=O)CC1 [CBK034853]	119	
O=C(O)C1CCN(C(=O)NCc2ccc(F)cc2)CC1 [CBK156070]	117	
CCCn1ncc(CN2CCC3(CC2)CC(C(=O)O)N(C(C)=O)C3)c1C (centres unmarked) [CBK306612]	86.7	
C[N+]1(C)CCCC1c1cc(Br)cnc1N (centres unmarked) [CBK217873I]	90.8	
O=C(O)CCC(CCC(=O)O)([N+](=O)[O-])[N+](=O)[O-] [CBK260956]	93.9	

SMILES	viability at 28.5 h, 10 µM [%]	viability at 28.5 h, 10 µM (bulk resorufin, single well) [%]
COc1ccc(C2CNC(=O)N2C(=O)OC(C)(C)C)cc1OC1CCCC1 (centres unmarked) [CBK007281]	93.8	
CN(C)c1ccc(-c2nccnc2NS(=O)(=O)c2cccs2)cc1 [CBK050804]	90.5	
O=C1C2CCCCC2C(=O)N1c1ccc(Oc2ccc(Br)cc2)cc1 (centres unmarked) [CBK263531]	116	
CS(=O)(=O)c1ccc(-c2nccnc2NCc2cccnc2)cc1 [CBK036977]	104	
Cc1cccc(N(CC(O)CN2C(=O)NC(C)(C)C2=O)S(=O)(=O)c2ccccc2)c1 (centres unmarked) [CBK263582]	103	
CCOc1ccc(S(=O)(=O)N2CCCN(Cc3ccc(C#N)cc3)CC2)c2cccnc12 [CBK062759]	107	
Cc1cc(Cn2nnc(-c3ccc(Br)cc3)n2)cc(C)c1O [CBK291129]	119	
NC(=O)C(=O)Nc1nc(-c2ccccc2)cs1 [CBK263005]	98.4	
Cc1nc2c3ccccc3nc(SCC(=O)Nc3ccccc3)n2n1 [CBK295205]	78.5	
Cc1ccc(-n2c(=O)[nH]cc(C(=O)Nc3cccc(Cl)c3C)c2=O)cc1C [CBK287551]	101	
FC(F)(F)c1nc2ccccc2nc1OCCCc1ccncc1 [CBK115804]	85.1	
O=C(NC1CC1)C1(Cc2ccccc2-c2ccncc2)CCOCC1 [CBK284785]	94.1	
O=C(O)C1CCN(Cc2cnnn2-c2ccccc2F)CC1 [CBK287197]	82.1	
O=C(NCC1CCN(c2ccc(F)c(F)c2)C1)c1c[nH]nc1C1CC1 (centres unmarked) [CBK305409]	91	
O=C1CC(c2cccnc2)c2sc(N3CCOCC3)nc2N1 (centres unmarked) [CBK287927]	105	
CCCCOc1nccnc1/C=C/c1ccccc1 [CBK106890]	92	
COc1nccnc1NS(=O)(=O)c1ccc(Nc2c([N+](=O)[O-])cc([N+](=O)[O-])c3nonc23)cc1 [CBK261441]	87.5	
O=C(Nc1ccccc1)N1C[C@@H]2OCC(=O)N(Cc3ccc(F)cc3)[C@@H]2C1 [CBK289683]	82	
Cc1ccnn1CCC(=O)N1CCCC1c1cc2cccnc2[nH]1 (centres unmarked) [CBK282230]	111	
CC(C)CC(=O)N1CCCn2nc(-c3ccncc3)cc2C1 [CBK288606]	94.7	
CCc1nn2c(=O)cc(CN3C(=O)NC(C)(c4ccco4)C3=O)nc2s1 (centres unmarked) [CBK305880]	114	
Cc1cccc(-n2cnc3cc(C(=O)NCc4cccnc4)ccc32)c1 [CBK294455]	77.5	
COc1cc(NC(=O)NCc2cncn2CC(C)C)c2ncccc2c1 [CBK307182]	52.1	

SMILES	viability at 28.5 h, 10 µM [%]	viability at 28.5 h, 10 µM (bulk resorufin, single well) [%]
Cc1cccc(-c2ccc(CC3(C(N)=O)CCN(C(=O)COc4ccccc4)CC3)cc2)c1 [CBK285797]	93.6	
CC(=O)NCCc1nc2cc(NC(=O)c3cccc([N+](=O)[O-])c3)ccc2n1C [CBK268478]	90.7	
O=c1c(Cl)nc(Cl)c(C2CCCCC2)n1Cc1ccccc1 [CBK012671]	87.6	
Cn1cc(-c2nccnc2OCCc2cccs2)cn1 [CBK107066]	95	
O=C(Nc1ccccc1O)c1cc(S(=O)(=O)N2CCCCCC2)ccc1Cl [CBK264554]	89.1	
COC(=O)c1c(NC(=S)NCc2cccs2)sc(C)c1-c1ccccc1 [CBK266943]	97	
Cc1cccc(-c2noc(CN(C(=O)c3ccc4c(c3)OCO4)C(C)C)n2)c1 [CBK268817]	98.1	
N#Cc1ccccc1N1CCN(c2cncc(-c3cccc4cccnc34)n2)CC1 [CBK037366]	102	
O=C1COc2ccccc2CCCCC2(CCCN(C(=O)CN3CCCC3=O)C2)CN1 (centres unmarked) [CBK291992]	105	
Nc1ncc(-c2cncnc2)nc1-c1ccc(CCC(=O)O)cc1 [CBK064120]	102	
Nc1ccc2c(-c3ccsc3)ccnc2n1 [CBK067637]	95.5	
COCCNC(=O)c1cc(-c2ccccc2C)nc2c1cnn2C(C)C [CBK305392]	111	
CC1CN(Cc2nc3c(c(=O)n(C)c(=O)n3C)n2CCCc2ccccc2)CC(C)O1 (centres unmarked) [CBK269349]	91.7	
Cc1ccccc1-n1sc(=O)n(Cc2ccc(F)cc2)c1=O [CBK113605]	101	
O=C(Cn1cccc(C(=O)Nc2cc(F)ccc2N2CCCC2)c1=O)NC1CCCCC1 [CBK286008]	88.9	
N#Cc1c2c(c(Nc3ccc(C4CCCCC4)cc3)n3c1nc1ccccc13)CCC2 [CBK263122]	95.1	
C(=C/c1ccccc1)/C=N/c1ccc2nc(-c3ccc(/N=C/C=C/c4ccccc4)cc3)[nH]c2c1 [CBK261656]	87.9	
CC(C)(C)C(=O)NC(=S)NNC(=O)c1ccncc1 [CBK269304]	90.6	
O=C(Nc1cccc2c1CCCC2)c1cnc2n(c1=O)CCS2 [CBK287379]	105	
COc1ccc(CCN2C(=O)c3ccccc3C2(O)c2ncc[nH]2)cc1OC (centres unmarked) [CBK262717]	103	
CCOC(=O)N1CCC(NS(=O)(=O)c2ccc3c(c2)oc(=O)n3C)CC1 [CBK304666]	84.5	
COC(=O)c1csc2nc(NCCCO)sc12 [CBK058832]	91.4	
CC1CCN(Cc2ccc(-c3nnn(CC(=O)NCc4ccc(O)cc4)n3)cc2)CC1 [CBK144156C]	90.9	

SMILES	viability at 28.5 h, 10 µM [%]	viability at 28.5 h, 10 µM (bulk resorufin, single well) [%]
CC(C(=O)Nc1ccc(S(N)(=O)=O)cc1)N(C)Cc1ccccc1F (centres unmarked) [CBK305840]	105	
CCc1cc(C(=O)OC)c(NC(=O)CC2NCCNC2=O)s1 (centres unmarked) [CBK266990]	97.6	
CCOc1cccc(-c2cncc(N3CCN(c4ccccn4)CC3)n2)c1 [CBK065985]	91.5	
CC(=O)Nc1ccc(S(=O)(=O)N2CCN(c3ccc([N+](=O)[O-])c(NC4C5CC6CC(C5)CC4C6)c3)CC2)cc1 (centres unmarked) [CBK268802]	90.5	
O=C(CN1CCCCC1)NCCNc1ccc([N+](=O)[O-])cc1Cl [CBK264922]	115	
COCC(C)NS(=O)(=O)c1cc(C)ccc1OC (centres unmarked) [CBK270037]	85.6	
Cc1ccc2nc(N3CCCC(O)C3)c(CN3CCC(F)CC3)cc2c1 (centres unmarked) [CBK307016]	89.1	
CCOC(=O)CC(=O)COc1nc2cc3c(nc2o1)CCCC3 [CBK269204]	89.8	
CCOC(=O)N1CCC2(CC1)OCc1cc(-c3ccccc3CO)ccc1O2 [CBK060908]		103
CC(Cc1cccs1)NC(=O)C(C)Cn1cccn1 (centres unmarked) [CBK283250]	85.4	
O=S(=O)(CCN1CCC2(CC1)CN(CCO)c1ccccc12)c1ccccc1 [CBK126758]	102	
CC/C(=C\c1sc2ccc3ccccc3c2[n+]1CCCS(=O)[O-])SC [CBK264941]	107	
Cc1ccc(N2CC(C(=O)NCCc3ccc(S(N)(=O)=O)cc3)CC2=O)cc1 (centres unmarked) [CBK267531]	84.4	
Cc1ccc(-c2nn(-c3ccccc3)cc2C2CC(c3cccs3)=NN2C(=O)CCC(=O)O)cc1 (centres unmarked) [CBK296126]	107	
c1ccc(-n2cc(-c3cncn3CCCN3CCCCC3)cn2)cc1 [CBK281465]	92.4	
O=c1oc2ccccc2c2c1nnn2CCCN1CCOCC1 [CBK261470C]	95.2	
COCCNc1nc(-c2cccc3ccccc23)cnc1N [CBK063574]	99.1	
c1ccc2[nH]c(CN3CCC[C@@H]3CN3CCCC3)nc2c1 [CBK149102]	85.9	
CC(=O)N1CC(C(=O)Nc2ncc(-c3ccccc3)n2C)C1 [CBK281373]	96.1	
O=S(=O)(Nc1ccccn1)c1cccs1 [CBK043773]	94.7	
